Results as given in patent US11332440B2, “4-oxo-alkylated tetramic acid compound, and preparation method thereof” (priority 2017, dated 2022).
Entries after “also recorded” stand apart in the source; their conditions may differ. Where two headings read alike, the source gives them in different places.

Experiments:
[1] = system: Salmonella typhimurium TA98; test: Mini Ames experiment, strain TA98; type: cell-based; conditions: TA98, regardless of the presence or absence of S9
Method: (§1) Histidine auxotrophic strains of Salmonella typhimurium were cultured in a special medium with quite a low content of histidine. The strains were difficult to divide due to lack of nutrition. If a test compound has mutagenicity, a large number of cells will undergo reverse mutation, synthesizing histidine by themselves and developing into colonies visible to the naked eye. In view of the close relationship between mutagenicity and carcinogenesis of chemicals, this method has been widely used in screening carcinogens. Some chemicals need metabolic activation to induce mutagenicity. Mammalian microsomal enzyme S9 can be added into the test system to eliminate the influence of metabolic activation on generation of mutagenicity.
(§2) […] Mini Ames test with compound 50561

[2] = system: Salmonella typhimurium TA100; test: Mini Ames experiment, strain TA100; type: cell-based; conditions: TA100, regardless of the presence or absence of S9
Method: as §1, §2

[3] = MTD experiment, dose gradient by gavage; type: in vivo; conditions: both sexes, mouse, in vivo, po, CR mice, by gavage, read-out: maximum tolerance (MTD)
Method: (§3) Mice are commonly used rodents to evaluate the toxicity of a test sample and are also an important part of early preclinical safety evaluation. In this experiment, the toxicity of compound 50561 was tested by administering a dose gradient thereof to the mice by gavage and observing its toxicity.
(§4) This experiment was designed such that for each dose centration, 10 mice were tested, including half males and half females. The males each weighed about 18-23 grams, and the females each weighed about 17-21 grams. They were randomly grouped by a simple randomization procedure. All the animals used in the experiment weighed between ±20% of the average body weight of their respective genders. If there are not enough animals in the study to meet the weight range required thereby, notify the responsible person of the project to take reasonable measures. Animals must be adapted to the laboratory for at least three days. During this period, daily cage observation was conducted once a day, and a detailed clinical observation was necessary before the experiment. Any animal with symptoms or physical abnormalities would be reported to the attending veterinarian and responsible person of the project, and excluded whenever possible. Animals suitable for experimentation will be assigned to respective experimental groups according to the random grouping method described above.
(§5) During the experiment, after administration, all animals were observed continuously for 4 hours; from the end of administration till 3 days thereafter, observations were carried out twice each day, one in the morning and the other in the afternoon; and then observation was carried out once a day. Observations included but were not limited to: skin, hair, eyes, ears, nose, mouth, chest, abdomen, external genitals, limbs, and feet. The respiratory and circulatory systems, autonomic effects (such as salivation), and nervous system (such as tremors, convulsions, stress responses, and abnormal behaviors) should be focused on. Complete anatomical examinations would be performed on all animals that had died, were dying, or planned to be euthanized. Animals found dead outside of fixed working hours could be placed in the refrigerator overnight and dissected immediately on the next working day. At the end of the experiment (14th day after administration), all animals requiring autopsy would be euthanized and autopsied.
(§6) External abnormalities in animals, such as palpable masses, should be examined in detail. The skin would be cut along the midline of the abdomen, and any subcutaneous mass would be confirmed in conjunction with the findings in the observations of animal symptoms. […] Diseased organs were removed, weighed, recoded, and kept in a fixative fluid.

CR mice = test: MTD experiment, dose gradient by gavage; type: in vivo
Method: as §3, §4, §5, §6

O=C1C=C(OCc2ccc(F)cc2)[C@H](Cc2ccccc2)N1 [Compound 50561]
change in the number of colonies / mutagenicity [1]: did not cause more than twice of a change in the number of colonies; also recorded: no obvious mutagenicity | change in the number of colonies / mutagenicity [2]: did not cause more than twice of a change in the number of colonies; also recorded: no obvious mutagenicity | MTD at 14 days ([3]; CR): < 500 mg/kg | MTD at 14 days [3]: ≥ 250 mg/kg | Body weight decreased (CR mice; 250 mg/kg by gavage): Body weight decreased by about 2 g, which | Remarks (CR mice; 250 mg/kg by gavage): in good condition. | Body weight decreased (CR mice; 500 mg/kg by gavage): Body weight decreased by about 2 g; | Remarks (CR mice; 500 mg/kg by gavage): individual activity decreased; and the body | Remarks (CR mice; 750 mg/kg by gavage): No abnormality of organs in dead individuals. | Remarks (CR mice; 1000 mg/kg by gavage): No abnormality of organs in dead individuals.
